“Also recorded” adds a separate entry of the source. Ends that are not written are not given here. * marks the point of attachment. MTSL = nitroxide spin label, CC1(C)C=C(CS*)C(C)(C)N1[O]
Experiments:
[1] = target: CRY Full-Length (residues 1-539) (Drosophila melanogaster, UniProt O77059); format: binding; conditions: fluorescence polarization; dark and light
CRYΔ (residues 1-520) = CRYΔ (residues 1-520) (Drosophila melanogaster, UniProt O77059); format: binding; conditions: fluorescence polarization; dark and light
CRY Asn253Ala/Gln254Ala [2] = target: T1, CRY Asn253Ala/Gln254Ala (Drosophila melanogaster, UniProt O77059, N253A/Q254A); format: binding; conditions: fluorescence polarization; dark and light
CRY Arg237Ala = CRY Arg237Ala (Drosophila melanogaster, UniProt O77059, R237A); format: binding; conditions: fluorescence polarization; dark and light
CRY Asn253Ala/Gln254Ala [3] = target: T1, CRY Asn253Ala/Gln254Ala; conditions: DEER; light state and dark-state proxy; compared with WT CRYΔ
CRYΔ = conditions: ref [20]-[22]; cited from earlier work

CRYΔ (residues 1-520), sequence (O77059 1-520, stated change not applied): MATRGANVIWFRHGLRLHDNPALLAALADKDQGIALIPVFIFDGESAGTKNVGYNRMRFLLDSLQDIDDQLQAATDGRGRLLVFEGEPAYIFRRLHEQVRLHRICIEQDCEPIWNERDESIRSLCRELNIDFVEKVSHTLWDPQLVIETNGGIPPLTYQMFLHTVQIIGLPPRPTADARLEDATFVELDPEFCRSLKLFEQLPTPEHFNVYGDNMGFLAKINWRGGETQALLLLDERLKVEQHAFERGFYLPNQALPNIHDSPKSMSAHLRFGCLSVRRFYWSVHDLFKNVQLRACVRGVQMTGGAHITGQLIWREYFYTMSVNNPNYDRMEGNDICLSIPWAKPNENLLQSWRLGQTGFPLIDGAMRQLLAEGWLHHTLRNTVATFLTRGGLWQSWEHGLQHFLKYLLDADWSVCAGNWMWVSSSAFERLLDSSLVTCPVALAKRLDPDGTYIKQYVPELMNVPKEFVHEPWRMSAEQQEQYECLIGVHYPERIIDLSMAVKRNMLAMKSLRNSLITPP
CRY Arg237Ala, sequence (O77059 1-539 R237A): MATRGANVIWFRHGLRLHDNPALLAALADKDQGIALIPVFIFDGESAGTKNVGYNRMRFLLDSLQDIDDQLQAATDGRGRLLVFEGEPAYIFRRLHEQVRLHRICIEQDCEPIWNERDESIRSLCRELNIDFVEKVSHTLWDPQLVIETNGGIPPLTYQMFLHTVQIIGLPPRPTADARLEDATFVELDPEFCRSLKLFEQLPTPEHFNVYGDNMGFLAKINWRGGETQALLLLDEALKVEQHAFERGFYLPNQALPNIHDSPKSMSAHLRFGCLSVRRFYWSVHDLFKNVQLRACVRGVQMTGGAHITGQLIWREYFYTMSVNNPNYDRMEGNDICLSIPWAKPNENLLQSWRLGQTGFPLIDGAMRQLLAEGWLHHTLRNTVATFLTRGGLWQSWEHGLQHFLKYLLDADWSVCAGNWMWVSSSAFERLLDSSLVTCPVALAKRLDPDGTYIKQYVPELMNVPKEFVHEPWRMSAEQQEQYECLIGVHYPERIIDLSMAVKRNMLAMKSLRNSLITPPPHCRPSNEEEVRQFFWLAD
T1 sequence (O77059 1-539 N253A/Q254A): as the sequence (O77059 1-539 R237A) above, with A237R, N253A, Q254A counted along it
CRY Full-Length (residues 1-539), sequence (O77059 1-539): as the sequence (O77059 1-539 R237A) above, with A237R counted along it

MDWLLATPQLYSAFSSLGC [S-TIMN]
binding to full-length CRY (in words) [1]: bound to full-length CRY (residues 1-539) only in light with an affinity similar to that seen for CRYΔ in light | binding to CRYΔ (in words) (CRYΔ (residues 1-520)): bound S-TIMN in both dark and light, but with somewhat higher affinity in the light; also recorded: reasonably high affinity in the dark and even tighter affinity in the light; also recorded: more strongly in light than dark | binding to Asn253Ala/Gln254Ala (in words) (CRY Asn253Ala/Gln254Ala [2]): bound both in dark and light, with stronger binding and a larger fraction of binding in the dark | binding to Arg237Ala (in words) (CRY Arg237Ala): no detectable binding of S-TIMN in either dark or light; also recorded: does not bind to CRY in either dark or light

S-TIMN-SL: S-TIMN spin-labeled with MTSL (MDWLLATPQLYSAFSSLGC(MTSL))
interaction of spin-labeled S-TIMN with Asn253Ala/Gln254Ala (in words) (CRY Asn253Ala/Gln254Ala [3]): considerably different than that observed for WT CRYΔ

B1: full-length TIM: Drosophila core oscillator protein Timeless (protein, UniProt P49021 1-1398, looked up)
chain: MDWLLATPQLYSAFSSLGCLEGDTYVVNPNALAILEEINYKLTYEDQTLRTFRRAIGFGQNVRSDLIPLLENAKDDAVLESVIRILVNLTVPVECLFSVDVMYRTDVGRHTIFELNKLLYTSKEAFTEARSTKSVVEYMKHILESDPKLSPHKCDQINNCLLLLRNILHIPETHAHCVMPMMQSMPHGISMQNTILWNLFIQSIDKLLLYLMTCPQRAFWGVTMVQLIALIYKDQHVSTLQKLLSLWFEASLSESSEDNESNTSPPKQGSGDSSPMLTSDPTSDSSDNGSNGRGMGGGMREGTAATLQEVSRKGQEYQNAMARVPADKPDGSEEASDMTGNDSEQPGSPEQSQPAGESMDDGDYEDQRHRQLNEHGEEDEDEDEVEEEEYLQLGPASEPLNLTQQPADKVNNTTNPTSSAPQGCLGNEPFKPPPPLPVRASTSAHAQMQKFNESSYASHVSAVKLGQKSPHAGQLQLTKGKCCPQKRECPSSQSELSDCGYGTQVENQESISTSSNDDDGPQGKPQHQKPPCNTKPRNKPRTIMSPMDKKELRRKKLVKRSKSSLINMKGLVQHTPTDDDISNLLKEFTVDFLLKGYSYLVEELHMQLLSNAKVPIDTSHFFWLVTYFLKFAAQLELDMEHIDTILTYDVLSYLTYEGVSLCEQLELNARQEGSDLKPYLRRMHLVVTAIREFLQAIDTYNKVTHLNEDDKAHLRQLQLQISEMSDLRCLFVLLLRRFNPSIHSKQYLQDLVVTNHILLLILDSSAKLGGCQTIRLSEHITQFATLEVMHYYGILLEDFNNNGEFVNDCIFTMMHHIGGDLGQIGVLFQPIILKTYSRIWEADYELCDDWSDLIEYVIHKFMNTPPKSPLTIPTTSLTEMTKEHNQEHTVCSWSQEEMDTLYWYYVQSKKNNDIVGKIVKLFSNNGNKLKTRISIIQQLLQQDIITLLEYDDLMKFEDAEYQRTLLTTPTSATTESGIEIKECAYGKPSDDVQILLDLIIKENKAQHLLWLQRILIECCFVKLTLRSGLKVPEGDHIMEPVAYHCICKQKSIPVVQWNNEQSTTMLYQPFVLLLHKLGIQLPADAGSIFARIPDYWTPETMYGLAKKLGPLDKLNLKFDASELEDATASSPSRYHHTGPRNSLSSVSSLDVDLGDTEELALIPEVDAAVEKAHAMASTPSPSEIFAVPKTKHCNSIIRYTPDPTPPVPNWLQLVMRSKCNHRTGPSGDPSDCIGSSSTTVDDEGFGKSISAATSQAASTSMSTVNPTTTLSLNMLNTFMGSHNENSSSSGCGGTVSSLSMVALMSTGAAGGGGNTSGLEMDVDASMKSSFERLEVNGSHFSRANNLDQEYSAMVASVYEKEKELNSDNVSLASDLTRMYVSDEDDRLERTEIRVPHYH
modifications: full-length
binding of TIM to CRYΔ (in words) (CRYΔ): binds TIM in both dark and light

Reference: paper PMC11289166 (Biochemistry, 2024)
